Assay results taken from patent US20250304625A1, “ARTICLES AND METHODS FOR INHIBITING METHIONINE AMINOPEPTIDASE ACTIVITY” (Vanderbilt University, priority 2022, published 2025).

Assays:
[1] = test system: TKPTS cells; assay: TKPTS cell proliferation by CellTrace flow cytometry; format: cell-based, murine; details: Zng1 mutant cells compared to WT, 3 μM TPA, three days
Method: TKPTS cells were seeding at 2,000 to 4,000 cells per well of 24- or 12-well tissue culture treated multi-well plates and incubated overnight at 37° C. Cells were staining with CellTRACE violet (Invitrogen, C34557) as described by manufacturer's protocol. Briefly, CellTRACE solution was prepared in PBS at a 1:1,000 dilution, added to the cells, and cells were incubated for 20 min at 37° C. Cells were then washed two times in cell culture media supplemented with 7% FBS, and replaced with fresh cell culture media supplemented with desired chemical treatments (3 μM TPA, Sigma, 723134; 5 μg/ml TNP470, Sigma, T1455; or 50 nM Bengamide B, Santa cruz, sc-397521A). Stock solutions of drugs were prepared in ACS-grade DMSO (Fisher Scientific, D136). […] After three days of growth, cells were stained with MitoTracker far-red (Invitrogen, M22426; 1:2500 dilution for 20 min at 37° C.) and MitoSOX red (Molecular probes, M36008: 1,1000 for 20 min at 37° C.) following manufacture's protocols. Cells were washed with PBS, trypsinized, and transferred to Eppendorf tubes prior to fixation in 4% PFA (Alfa aesar, J61899). Cells were fixed for 20 min at room temperature, centrifuged at 200×g for 10 min and washed with PBS prior to resuspension in 300 μl FACS buffer (2% FBS, 0.02% sodium azide in PBS). All flow cytometry data were collected using a BD LSRII flow cytometer with FACSDIVA software and analyzed using FlowJo (FlowJo LLC). Samples were gated forward scatter height (FSC-H) by forward scatter area (FSC-A) and side scatter height (SSC-H) by side scatter area (SSC-A) to remove doublet populations. The singlet population was gated SSC-A by FSC-A to isolate live cells. The resulting cell population was then assessed for assay-specific fluorescent markers and the median fluorescence intensity (MFI) quantified.

[2] = test system: TKPTS cells; assay: Seahorse XF96 cell mitochondrial stress test (oxygen consumption rate); format: cell-based, murine; details: Zng1^−/− cells pre-treated with 3 μM TPA
Method: 8,000 WT or Zng1 mutant vehicle treated TKPTS cells or TKPTS cells serially passaged in 3 μM TPA (Sigma, 723134) were plated in individual wells of seahorse plates in complete DMEM F12 media described above. Cells were resuspended in mitochondria assay media (Seahorse Agilent pH 7.4 media+1 mM pyruvate+10 mM glucose+2 mM glutamine). No TKPTS cells were added to the four wells in the corners of the plate as a background control. For the mitochondrial stress test, the cartridge was sequentially loaded with oligomycin (15 μM), FCCP (15 μM), and rotenone/antimycin A (5 μM) (diluted in mitochondria assay media) for injection into the wells. To normalize across wells by cell density, the Seahorse plate was imaged using a BioTek Cytation 5. Oxygen consumption and extracellular acidification rates were collected using a Seahorse XFe96 Analyzer and analyzed using Wave Desktop software (Agilent Technologies).

[3] = test system: cell lines; details: compared to other chelators (e.g. TPEN); cited from earlier work
[4] = test system: zng1 transcript; assay: zng1 expression in whole zebrafish larvae (qPCR); format: in vivo; details: WT larvae, immersion, 20 μM TPEN vs ethanol vehicle
Method: For all experiments larval zebrafish were bred naturally and collected into embryo media and were maintained at 28° C. on a 14/10 h light/dark cycle for duration of experiments. For survival experiments, zebrafish larvae were split into even densities into 6 or 12 multi-well plates in 5 mL or 1 mL embryo media respectively at 3 dpf. Stock solutions of METAP2 inhibitor TNP-470 (Sigma, T1455) and METAP1/2 inhibitor Bengamide B (Santa cruz, sc-397521A) were prepared in ACS-grade DMSO (Fisher Scientific, D136) and TPEN (Sigma, P4413) was prepared in ethanol and stored at −20° C. TNP-470, Bengamide B, and/or TPEN were applied into embryo media as well as a DMSO and/or ethanol vehicle controls at 3 dpf. Zebrafish survival was monitored daily until 6 dpf and all moribund or dead animals were removed. […]
For RNA isolation from dissected mouse tissue, mice were humanely euthanized, tissues harvested and immediately flash frozen in liquid nitrogen and stored at −80C. […] Quantitative PCR was performed in duplicate-quadruplicate 25 μL reactions using 2× iQ SYBR Green SuperMix (BioRad, 1708882) run on an BioRad CFX96 Real-Time System instrument using gene-specific primers (zebrafish: P34-P39, mice: P40-P43, cell lines: 44-69, Table S5). Data were analyzed with the ΔΔCt method (Livak and Schmittgen, 2001) or presented as relative expression values.

Row | Structure (SMILES) | proliferation (CellTrace dye retention) [1] | basal and maximal respiration, ATP production, and proton leak (OCR) [2] | cytotoxicity towards cell lines [3] | zng1 transcript [4]
1 | c1ccc(CN(Cc2ccccn2)Cc2ccccn2)nc1 [TPA, tris(2-pyridylmethyl)amine] | significantly slowed proliferation | significantly impaired | lower cytotoxicity | –
2 | c1ccc(CN(CCN(Cc2ccccn2)Cc2ccccn2)Cc2ccccn2)nc1 [TPEN, N,N,N′,N′-Tetrakis(2-pyridylmethyl)ethylenediamine] | – | – | – | significant induction
